The values that follow come from patent US20020026053A1, “Novel 3-(substituted) -2- indolinones compounds and use thereof as inhibitors of protein kinase activity” (priority 1997, published 2002).

The assay has as its system FLK-1 receptor. The assay can be described thus: FLK-1 Assay (cellular/catalytic ELISA, VEGF-stimulated phosphotyrosine). In kind it is cell-based. Also on record: concentration or dose not given beside the values. As to conditions: protocol P.110. In a few lines: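 Receptor phosphotyrosine ELISA: Flk-1-expressing NIH3T3 C7#3 cells, starved overnight in 0.1% FBS medium, received compound (1:200 final dilution, 0.5% DMSO) for 2 h at 37 °C, then VEGF. Anti-FLK-1-captured receptor was probed with anti-phosphotyrosine UB40 and peroxidase/ABTS read-out, relative to cells without compound.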
For orientation: ELISA stands for enzyme-linked immunosorbent assay.

Regarding `Cc1c(Br)cc(Br)c2c1C(=Cc1cc(O)cc(O)c1)C(=O)N2` [10738/H07], the “Flk Kinase % Inhibition (P.110)” value is −17.4%.

On to `Cc1c(Br)cc(Br)c2c1C(=Cc1ccc(Cl)c(Cl)c1)C(=O)N2` [10738/H08], for which the “Flk Kinase % Inhibition (P.110)” value is given as −12.7%.

As to `COc1ccccc1C=C1C(=O)Nc2c(Br)cc(Br)c(C)c21` [10738/H09], the “Flk Kinase % Inhibition (P.110)” value is reported as −6.5%.

As to `Cc1c(Br)cc(Br)c2c1C(=Cc1ccc(C(C)C)cc1)C(=O)N2` [10738/H10], the “Flk Kinase % Inhibition (P.110)” value turned out to be 1.7%.

For the compound `CCCOc1ccc(C=C2C(=O)Nc3c(Br)cc(Br)c(C)c32)cc1` [10738/H11], the “Flk Kinase % Inhibition (P.110)” value is given as −4.1%.

Turning to `COc1ccc(C=C2C(=O)Nc3c(Br)cc(Br)cc32)cc1C` [10739/A02], the “Flk Kinase % Inhibition (P.110)” value worked out at 1.2%.

For `O=C1Nc2c(Br)cc(Br)cc2C1=Cc1cccc(OCc2ccccc2)c1` [10739/A03], the “Flk Kinase % Inhibition (P.110)” value worked out at 2.9%.

For `O=C1Nc2c(Br)cc(Br)cc2C1=Cc1ccc(OCc2ccccc2)cc1` [10739/A04], the “Flk Kinase % Inhibition (P.110)” value is −8.2%.

Consider `O=C1Nc2c(Br)cc(Br)cc2C1=CC1COc2ccccc2O1` (stereo not shown) [10739/A05], for which the “Flk Kinase % Inhibition (P.110)” value is recorded as −11.0%.

`O=C1Nc2c(Br)cc(Br)cc2C1=Cc1ccc(O)cc1Cl` [10739/A06]: the “Flk Kinase % Inhibition (P.110)” value was found to be 7.4%.

For `O=C1Nc2c(Br)cc(Br)cc2C1=Cc1cc(O)c(O)c(O)c1` [10739/A07], the “Flk Kinase % Inhibition (P.110)” value was determined as 4.1%.

As for `COc1ccc(Oc2cccc(C=C3C(=O)Nc4c(Br)cc(Br)cc43)c2)cc1` [10739/A08], the “Flk Kinase % Inhibition (P.110)” value is −25.5%.

For the compound `CN(C)CCCOc1ccc(C=C2C(=O)Nc3c(Br)cc(Br)cc32)cc1` [10739/A09], the “Flk Kinase % Inhibition (P.110)” value is on record as −9.1%.

Turning to `O=C1Nc2c(Br)cc(Br)cc2C1=Cc1ccoc1` [10739/A10], the “Flk Kinase % Inhibition (P.110)” value was −2.5%.

For the compound `O=C1Nc2c(Br)cc(Br)cc2C1=Cc1ccc(CO)o1` [10739/A11], the “Flk Kinase % Inhibition (P.110)” value stood at 3.9%.

`COc1ccc(C=C2C(=O)Nc3ccc(I)cc32)cc1C` [10739/B02]: the “Flk Kinase % Inhibition (P.110)” value was found to be 2.1%.

Regarding `O=C1Nc2ccc(I)cc2C1=Cc1cccc(OCc2ccccc2)c1` [10739/B03], the “Flk Kinase % Inhibition (P.110)” value is 3.5%.

On to `O=C1Nc2ccc(I)cc2C1=Cc1ccc(OCc2ccccc2)cc1` [10739/B04], for which the “Flk Kinase % Inhibition (P.110)” value was 13.2%.

For the compound `O=C1Nc2ccc(I)cc2C1=CC1COc2ccccc2O1` (stereo not shown) [10739/B05], the “Flk Kinase % Inhibition (P.110)” value was 4.1%.

Regarding `O=C1Nc2ccc(I)cc2C1=Cc1ccc(O)cc1Cl` [10739/B06], the “Flk Kinase % Inhibition (P.110)” value was found to be 9.3%.

On to `O=C1Nc2ccc(I)cc2C1=Cc1cc(O)c(O)c(O)c1` [10739/B07], for which the “Flk Kinase % Inhibition (P.110)” value is 1.1%.

On to `COc1ccc(Oc2cccc(C=C3C(=O)Nc4ccc(I)cc43)c2)cc1` [10739/B08], for which the “Flk Kinase % Inhibition (P.110)” value turned out to be 6.5%.

As to `CN(C)CCCOc1ccc(C=C2C(=O)Nc3ccc(I)cc32)cc1` [10739/B09], the “Flk Kinase % Inhibition (P.110)” value is −15.4%.

Regarding `O=C1Nc2ccc(I)cc2C1=Cc1ccoc1` [10739/B10], the “Flk Kinase % Inhibition (P.110)” value is listed as −10.1%.

For the compound `O=C1Nc2ccc(I)cc2C1=Cc1ccc(CO)o1` [10739/B11], the “Flk Kinase % Inhibition (P.110)” value came out at 12.5%.

Regarding `COc1ccc(C=C2C(=O)Nc3ccc(Br)c(C)c32)cc1C` [10739/C02], the “Flk Kinase % Inhibition (P.110)” value is given as −10.8%.

As for `Cc1c(Br)ccc2c1C(=Cc1cccc(OCc3ccccc3)c1)C(=O)N2` [10739/C03], the “Flk Kinase % Inhibition (P.110)” value came out at 16.4%.

As to `Cc1c(Br)ccc2c1C(=Cc1ccc(OCc3ccccc3)cc1)C(=O)N2` [10739/C04], the “Flk Kinase % Inhibition (P.110)” value was 21.8%.

With `Cc1c(Br)ccc2c1C(=CC1COc3ccccc3O1)C(=O)N2` (stereo not shown) [10739/C05], the “Flk Kinase % Inhibition (P.110)” value was 5.6%.

Take `Cc1c(Br)ccc2c1C(=Cc1ccc(O)cc1Cl)C(=O)N2` [10739/C06]: the “Flk Kinase % Inhibition (P.110)” value stood at 17.7%.

As for `Cc1c(Br)ccc2c1C(=Cc1cc(O)c(O)c(O)c1)C(=O)N2` [10739/C07], the “Flk Kinase % Inhibition (P.110)” value is −14.5%.

For `COc1ccc(Oc2cccc(C=C3C(=O)Nc4ccc(Br)c(C)c43)c2)cc1` [10739/C08], the “Flk Kinase % Inhibition (P.110)” value stood at 4.8%.

With `Cc1c(Br)ccc2c1C(=Cc1ccc(OCCCN(C)C)cc1)C(=O)N2` [10739/C09], the “Flk Kinase % Inhibition (P.110)” value came to 10.0%.

Consider `Cc1c(Br)ccc2c1C(=Cc1ccoc1)C(=O)N2` [10739/C10], for which the “Flk Kinase % Inhibition (P.110)” value was −7.1%.

For `Cc1c(Br)ccc2c1C(=Cc1ccc(CO)o1)C(=O)N2` [10739/C11], the “Flk Kinase % Inhibition (P.110)” value was 70.6%.

Take `CNS(=O)(=O)c1ccc2c(c1)C(=Cc1ccc(OC)c(C)c1)C(=O)N2` [10739/D02]: the “Flk Kinase % Inhibition (P.110)” value was found to be 25.6%.

Take `CNS(=O)(=O)c1ccc2c(c1)C(=Cc1cccc(OCc3ccccc3)c1)C(=O)N2` [10739/D03]: the “Flk Kinase % Inhibition (P.110)” value was −18.3%.

In the case of `CNS(=O)(=O)c1ccc2c(c1)C(=Cc1ccc(OCc3ccccc3)cc1)C(=O)N2` [10739/D04], the “Flk Kinase % Inhibition (P.110)” value is 11.8%.

As for `CNS(=O)(=O)c1ccc2c(c1)C(=CC1COc3ccccc3O1)C(=O)N2` (stereo not shown) [10739/D05], the “Flk Kinase % Inhibition (P.110)” value is on record as 12.2%.

Regarding `CNS(=O)(=O)c1ccc2c(c1)C(=Cc1ccc(O)cc1Cl)C(=O)N2` [10739/D06], the “Flk Kinase % Inhibition (P.110)” value is given as 9.0%.

With `CNS(=O)(=O)c1ccc2c(c1)C(=Cc1cc(O)c(O)c(O)c1)C(=O)N2` [10739/D07], the “Flk Kinase % Inhibition (P.110)” value is listed as −5.1%.

For the compound `CNS(=O)(=O)c1ccc2c(c1)C(=Cc1cccc(Oc3ccc(OC)cc3)c1)C(=O)N2` [10739/D08], the “Flk Kinase % Inhibition (P.110)” value came out at 14.3%.

Take `CNS(=O)(=O)c1ccc2c(c1)C(=Cc1ccc(OCCCN(C)C)cc1)C(=O)N2` [10739/D09]: the “Flk Kinase % Inhibition (P.110)” value is listed as −32.8%.

In the case of `COc1ccc(C=C2C(=O)Nc3ccc(S(=O)(=O)Nc4ccc(C(F)(F)F)cc4)cc32)cc1C` [10739/E02], the “Flk Kinase % Inhibition (P.110)” value was 26.7%.

On to `O=C1Nc2ccc(S(=O)(=O)Nc3ccc(C(F)(F)F)cc3)cc2C1=Cc1cccc(OCc2ccccc2)c1` [10739/E03], for which the “Flk Kinase % Inhibition (P.110)” value is −119.0%.

Regarding `O=C1Nc2ccc(S(=O)(=O)Nc3ccc(C(F)(F)F)cc3)cc2C1=Cc1ccc(OCc2ccccc2)cc1` [10739/E04], the “Flk Kinase % Inhibition (P.110)” value was 17.7%.

Turning to `O=C1Nc2ccc(S(=O)(=O)Nc3ccc(C(F)(F)F)cc3)cc2C1=CC1COc2ccccc2O1` (stereo not shown) [10739/E05], the “Flk Kinase % Inhibition (P.110)” value is reported as 28.0%.

On to `O=C1Nc2ccc(S(=O)(=O)Nc3ccc(C(F)(F)F)cc3)cc2C1=Cc1ccc(O)cc1Cl` [10739/E06], for which the “Flk Kinase % Inhibition (P.110)” value was 34.3%.

In the case of `O=C1Nc2ccc(S(=O)(=O)Nc3ccc(C(F)(F)F)cc3)cc2C1=Cc1cc(O)c(O)c(O)c1` [10739/E07], the “Flk Kinase % Inhibition (P.110)” value is on record as 10.0%.

For `COc1ccc(Oc2cccc(C=C3C(=O)Nc4ccc(S(=O)(=O)Nc5ccc(C(F)(F)F)cc5)cc43)c2)cc1` [10739/E08], the “Flk Kinase % Inhibition (P.110)” value came out at 17.2%.

For `CN(C)CCCOc1ccc(C=C2C(=O)Nc3ccc(S(=O)(=O)Nc4ccc(C(F)(F)F)cc4)cc32)cc1` [10739/E09], the “Flk Kinase % Inhibition (P.110)” value worked out at 24.5%.

For `O=C1Nc2ccc(S(=O)(=O)Nc3ccc(C(F)(F)F)cc3)cc2C1=Cc1ccoc1` [10739/E10], the “Flk Kinase % Inhibition (P.110)” value is on record as 11.2%.
